Here are results for five compounds from patent US20260001875A1, “AMINOPYRIMIDINYL DERIVATIVES FOR THE TREATMENT OF PARKINSON'S DISEASE” (UNIVERSITY OF DUNDEE, priority 2022, published 2026).

What all share (settings): Mus musculus
The subject of test [1] is Rab10 pThr73. The test is described as follows: Rab10 Thr73 dephosphorylation (immunoblot) in WT MEFs. It counts as cell-based, mouse. As to the method: Western blot degradation assays for the LRRK2 protacs were performed with WT and PD-associated LRRK2 [G2019S] mouse embryonic fibroblasts (MEFs). The second-generation PROTACs were tested in parallel with the first generation PROTACs SD75, SD82, and SD100. The compounds were tested at 33 nM or […] concentrations for 4 hours or 24 hours, running two biological replicates per condition and achieving quantifications representative of both replicates. Analysis by quantitative immunoblotting was performed with readouts of the total LRRK2 (antibody recognizes epitope in C-terminus of protein), Rab10 pThr73 (physiological substrate) and LRRK2 pSer935 (biomarker phosphorylation site).
(§1) Primary MEFs were generated as described in a previous study (Wiggin et al., Mol. Cell Biol. 2002 April; 22(8):2871-81.). Briefly, the uterine horn was collected from adult female mice at day E12.5 and transferred to a 10 cm tissue culture dish containing cold PBS. Two forceps were used to tear the yolk sacs to isolate each embryo. Forceps were cleaned thoroughly with 70% ethanol between each embryo isolation. The embryos were culled, and a tissue piece was collected in a PCR tube for genotyping. The red tissue of the embryo, which grows to become the heart and liver, was removed. The remainder of the embryo was minced with a scalpel blade and incubated with 7.5 ml trypsin-EDTA solution for 10 minutes in a 37° C. tissue culture CO2 incubator. The dish was removed from the incubator and checked under a light microscope for single cells. 7.5 ml complete media was added to the trypsinised cells, and the cell suspension was transferred to a 15 ml Falcon tube, centrifuged at 1200 rpm for 5 minutes at room temperature. The trypsin was aspirated, the cell pellet was resuspended in 5 ml fresh complete media, and the cell suspension was plated in a 60 mm tissue culture dish and incubated in a 37° C., 5% CO2 tissue culture incubator. The MEFs at this stage were considered as passage 0 and were passaged and expanded for experimental use once the genotype was confirmed by allelic sequencing and immunoblotting. MEFs were cultured in Dulbecco's modified Eagle medium (DMEM) containing 10% (v/v) fetal bovine serum (FBS), 2 mM L-glutamine, 100 U/ml penicillin, and 100 μg/ml streptomycin supplemented with 1× non-essential amino acids and 1 mM sodium pyruvate.
Culturing and passaging of adherent cell lines were carried out using aseptic technique in CL1 or CL2 (for PBMC isolation) biological safety cabinets. All cells were incubated in a 37° C. incubator with 5% CO2. Cell lines were regularly tested for mycoplasma contamination. For western blot assay, the cells were seeded in 6-well plates. After treating with testing compounds at indicated concentrations and time period, the media was removed and the cells were washed with PBS and lysed in 100 μl ice-cold complete lysis buffer containing 50 mM Tris-HCl pH 7.4, 1 mM EGTA, 10 mM 2-glycerophosphate, 50 mM sodium fluoride, 5 mM sodium pyrophosphate, 270 mM sucrose, supplemented with 1 μg/ml microcystin-LR, 1 mM sodium orthovanadate, complete EDTA-free protease inhibitor cocktail (Roche) and 1% (v/v) Triton X-100. The cells were immediately placed on ice and were scraped and collected into 1.5 ml Eppendorf tubes. Cell lysates were incubated on ice for 10 minutes prior to centrifugation at 15,000 g at 4° C. for 15 minutes. The cell pellet was discarded, and supernatant was collected for analysis by quantitative immunoblotting. For long term storage, the supernatant was flash frozen and stored at −80° C. Protein concentrations of cell lysates were determined using the Bradford assay.
Cell lysates containing a quarter of a volume of 4× NuPAGE LDS sample buffer (NP0007) supplemented with 5% β-mercaptoethanol, were heated at 95° C. for 5 minutes. […]
Background: In western blotting, separated proteins are transferred to a membrane and probed.

Test [2] relates to Rab10 pThr73. The test is described as follows: Rab10 Thr73 dephosphorylation (immunoblot) in LRRK2^G2019S MEFs. Format: cell-based. The procedure: The second-generation PROTACs were tested in parallel with the first generation PROTACs SD75, SD82, and SD100. The compounds were tested at 33 nM or […] concentrations for 4 hours or 24 hours, running two biological replicates per condition and achieving quantifications representative of both replicates. Analysis by quantitative immunoblotting was performed with readouts of the total LRRK2 (antibody recognizes epitope in C-terminus of protein), Rab10 pThr73 (physiological substrate) and LRRK2 pSer935 (biomarker phosphorylation site).
as §1
Culturing and passaging of adherent cell lines were carried out using aseptic technique in CL1 or CL2 (for PBMC isolation) biological safety cabinets. All cells were incubated in a 37° C. incubator with 5% CO2. Cell lines were regularly tested for mycoplasma contamination. For western blot assay, the cells were seeded in 6-well plates. […] The cells were immediately placed on ice and were scraped and collected into 1.5 ml Eppendorf tubes. Cell lysates were incubated on ice for 10 minutes prior to centrifugation at 15,000 g at 4° C. for 15 minutes. The cell pellet was discarded, and supernatant was collected for analysis by quantitative immunoblotting. For long term storage, the supernatant was flash frozen and stored at −80° C. Protein concentrations of cell lysates were determined using the Bradford assay.
Cell lysates containing a quarter of a volume of 4× NuPAGE LDS sample buffer (NP0007) supplemented with 5% β-mercaptoethanol, were heated at 95° C. for 5 minutes. 15 to 20 μg of samples were loaded onto pre-cast 4-12% Bis-Tris midi 20W or 26W gels (Thermofisher Scientific®, Cat #WG1402BOX or WG1403BOX) and resolved at 130 V for 2 hours with NuPAGE MOPS SDS running buffer (Thermofisher Scientific® Cat #NP0001-02). Proteins were electrophoretically transferred onto a 0.45 μm nitrocellulose membrane (GE Healthcare, Amersham Protran® Supported 0.45 mm NC) at 90 V for 90 min on ice in transfer buffer (48 mM Tris base and 39 mM glycine supplemented with 20% methanol). The transferred membrane was blocked with 5% (w/v) skim milk powder dissolved in tris-buffered saline with tween (TBS-T) (50 mM Tris base, 150 mM sodium chloride (NaCl), 0.1% (v/v) Tween-20) at room temperature for 1 hour.

Test [3] has as its system Rab10 pThr73. The test is described as above. It counts as cell-based, mouse.
The mark [4] stands for this setting: 33 nM/4 h treatment, read-out: pRab10 inhibited in WT MEFs.
[5] abbreviates: 33 nM/24 h treatment, read-out: pRab10 inhibited in WT MEFs.
Where [6] appears, read: 1 μM/4 h treatment, read-out: pRab10 inhibited in WT MEFs.
[7] abbreviates: 1 μM/24 h treatment, read-out: pRab10 inhibited in WT MEFs.
Where [8] appears, read: 33 nM/4 h treatment, read-out: pRab10 inhibited in LRRK2^G2019S MEFs.
[9] abbreviates: 33 nM/24 h treatment, read-out: pRab10 inhibited in LRRK2^G2019S MEFs.
The mark [10] stands for this setting: 1 μM/4 h treatment, read-out: pRab10 inhibited in LRRK2^G2019S MEFs.
[11] abbreviates: 1 μM/24 h treatment, read-out: pRab10 inhibited in LRRK2^G2019S MEFs.

Turning to `CNc1nc(Nc2ccc(C(=O)N3CCN(CCCOc4cccc(C(=O)c5csc(C6CCCN6C(=O)[C@@H](NC(=O)[C@H](C)NC)C6CCCCC6)n5)c4)CC3)cc2OC)ncc1Cl` (stereo partly drawn) [SD114, (S)—N—((S)-2-((S)-2-(4-(3-(3-(4-(4-((5-chloro-4-(methylamino)pyrimidin-2-yl)amino)-3-methoxybenzoyl)piperazin-1-yl)propoxy)benzoyl)thiazol-2-yl)pyrrolidin-1-yl)-1-cyclohexyl-2-oxoethyl)-2-(methylamino)propenamide], the inhibition at 0.033 µM in the test with Rab10 pThr73 [1] (setting [4]) lay in the range of 0 to 25%; in the test with Rab10 pThr73 [1] (setting [5]), 10 to 40%; with Rab10 pThr73 [2] (setting [8]) it was 0 to 60%; with Rab10 pThr73 [2] (setting [9]), 0 to 70%. For the same compound, the inhibition at 1 µM in the test on Rab10 pThr73 [1] (setting [6]) was 18 to 90%; in the test with Rab10 pThr73 [1] (setting [7]), 30 to 90%; in the test on Rab10 pThr73 [3] (setting [10]), 30 to 95%; in the test with Rab10 pThr73 [3] (setting [11]), 30 to 100%.

In the case of `CNc1nc(Nc2ccc(C(=O)N3CCC4(CCN(CCCSC(C)(C)[C@H](NC(=O)C5(F)CC5)C(=O)N5C[C@H](O)C[C@H]5C(=O)NCc5ccc(-c6scnc6C)cc5)CC4)CC3)cc2OC)ncc1Cl` [XL02067B, (2S,4R)-1-((R)-3-((3-(9-(4-((5-chloro-4-(methylamino)pyrimidin-2-yl)amino)-3-methoxybenzoyl)-3,9-diazaspiro[5.5]undecan-3-yl)propyl)thio)-2-(1-fluorocyclopropane-1-carboxamido)-3-methylbutanoyl)-4-hydroxy-N-(4-(4-methylthiazol-5-yl)benzyl)pyrrolidine-2-carboxamide], the inhibition at 0.033 µM in the test with Rab10 pThr73 [1] (read-out: pRab10 inhibited in WT MEFs, 33 nM/4 h treatment) is 0 to 70%; in the test with Rab10 pThr73 [1] (read-out: pRab10 inhibited in WT MEFs, 33 nM/24 h treatment), 0 to 80%; with Rab10 pThr73 [2] (read-out: pRab10 inhibited in LRRK2^G2019S MEFs, 33 nM/4 h treatment), 0 to 90%; in the test with Rab10 pThr73 [2] (read-out: pRab10 inhibited in LRRK2^G2019S MEFs, 33 nM/24 h treatment) it was 30 to 90%. In addition, the inhibition at 1 µM in the test with Rab10 pThr73 [1] (read-out: pRab10 inhibited in WT MEFs, 1 μM/4 h treatment) lay in the range of 80 to 100%; in the test on Rab10 pThr73 [1] (read-out: pRab10 inhibited in WT MEFs, 1 μM/24 h treatment) it was 80 to 100%; with Rab10 pThr73 [3] (read-out: pRab10 inhibited in LRRK2^G2019S MEFs, 1 μM/4 h treatment), 10 to 100%; in the test with Rab10 pThr73 [3] (read-out: pRab10 inhibited in LRRK2^G2019S MEFs, 1 μM/24 h treatment) it was 80 to 100%.

On to `CNc1nc(Nc2ccc(OC[C@H]3CC[C@H](CSC(C)(C)C(NC(=O)C4(F)CC4)C(=O)N4C[C@H](O)C[C@H]4C(=O)NCc4ccc(-c5scnc5C)cc4)CC3)cc2OC)ncc1Cl` (stereo partly drawn) [XL01168, (2S,4R)-1-((S)-3-((((1R,4S)-4-((4-((5-chloro-4-(methylamino)pyrimidin-2-yl)amino)-3-methoxyphenoxy)methyl)cyclohexyl)methyl)thio)-2-(1-fluorocyclopropane-1-carboxamido)-3-methylbutanoyl)-4-hydroxy-N-(4-(4-methylthiazol-5-yl)benzyl)pyrrolidine-2-carboxamide], for which the inhibition at 0.033 µM lay in the range of 0 to 40% in the test on Rab10 pThr73 [1] (setting [4]), 0 to 60% in the test with Rab10 pThr73 [1] (setting [5]), 0 to 70% in the test with Rab10 pThr73 [2] (setting [8]) and 0 to 90% in the test on Rab10 pThr73 [2] (setting [9]). Besides, the inhibition at 1 µM with Rab10 pThr73 [1] (setting [6]) fell in the range of 10 to 95%; in the test with Rab10 pThr73 [1] (setting [7]), 30 to 100%; with Rab10 pThr73 [3] (setting [10]) it was 20 to 100%; in the test on Rab10 pThr73 [3] (setting [11]), 10 to 100%.

On to `CNc1nc(Nc2ccc(C(=O)N3CCN(CCCSC(C)(C)[C@H](NC(=O)C4(F)CC4)C(=O)N4C[C@H](O)C[C@H]4C(=O)N[C@@H](C)c4ccc(-c5scnc5C)cc4)CC3)cc2OC)ncc1Cl` [XL01118, (2S,4R)-1-((R)-3-((3-(4-(4-((5-chloro-4-(methylamino)pyrimidin-2-yl)amino)-3-methoxybenzoyl)piperazin-1-yl)propyl)thio)-2-(1-fluorocyclopropane-1-carboxamido)-3-methylbutanoyl)-4-hydroxy-N—((S)-1-(4-(4-methylthiazol-5-yl)phenyl)ethyl)pyrrolidine-2-carboxamide], for which the inhibition at 0.033 µM with Rab10 pThr73 [1] (setting [4]) was in the range of 0 to 40%; with Rab10 pThr73 [1] (setting [5]), 0 to 60%; in the test on Rab10 pThr73 [2] (setting [8]) it was 0 to 70%; with Rab10 pThr73 [2] (setting [9]), 0 to 90%. The inhibition at 1 µM with Rab10 pThr73 [1] (setting [6]) fell in the range of 10 to 95%; with Rab10 pThr73 [1] (setting [7]), 30 to 100%; in the test with Rab10 pThr73 [3] (setting [10]), 20 to 100%; in the test on Rab10 pThr73 [3] (setting [11]), 10 to 100%.

Consider `CNc1nc(Nc2ccc(C(=O)N3CCN(CCOCCSC(C)(C)[C@H](NC(=O)C4(F)CC4)C(=O)N4C[C@H](O)C[C@H]4C(=O)NCc4ccc(-c5scnc5C)cc4)CC3)cc2OC)ncc1Cl` [XL01131, (2S,4R)-1-((R)-3-((2-(2-(4-(4-((5-chloro-4-(methylamino)pyrimidin-2-yl)amino)-3-methoxybenzoyl)piperazin-1-yl)ethoxy)ethyl)thio)-2-(1-fluorocyclopropane-1-carboxamido)-3-methylbutanoyl)-4-hydroxy-N-(4-(4-methylthiazol-5-yl)benzyl)pyrrolidine-2-carboxamide], for which the inhibition at 0.033 µM in the test on Rab10 pThr73 [1] (setting [4]) is 0 to 40%; in the test on Rab10 pThr73 [1] (setting [5]), 0 to 60%; in the test with Rab10 pThr73 [2] (setting [8]) it was 0 to 70%; in the test with Rab10 pThr73 [2] (setting [9]) it was 0 to 90%. In addition, the inhibition at 1 µM lay in the range of 10 to 95% in the test with Rab10 pThr73 [1] (setting [6]), 30 to 100% in the test with Rab10 pThr73 [1] (setting [7]), 20 to 100% in the test on Rab10 pThr73 [3] (setting [10]) and 10 to 100% in the test on Rab10 pThr73 [3] (setting [11]).
